“Also recorded” adds a separate entry of the source.

Data set [1] concerns human pancreas adenocarcinoma (PA-TU-8988T) cells. The experiment in a line: MTT cell viability assay of cancer cells with or without CAP activation, followed by reactive species treatment. The class given is cell-based. The settings on record: for cell viability: 10 μM H2O2 on CAP-activated cells, 12.5 kHz, 1.53 lpm. Here is the method:
In this example, human pancreas adenocarcinoma (PA-TU-8988T) cells were used in conjunction with a Dulbecco's modified Eagle's medium (DMEM, 11965-118) from Life Technologies. The DMEM was mixed with 1% (v/v) antibiotic (penicillin and streptomycin) solution (Life Technologies). The media used in the cell culture were composed of DMEM supplemented with 10% (v/v) fetal bovine serum (ThermoFisher Scientific). The cells were cultured in a 96-well plate (61406-081, Corning). 100 μL of the cells-harvesting solution (3×10^4 cells/mL) were seeded in each well. Cancer cells were grown for 1 day under the standard culture condition (a humidified, 37 C, 5% CO2 environment). The media used to culture cells overnight were removed before any experiments were performed.
In the example system 200 in FIG. 2A, basic protocols were provided to determine the activation state of cancer cells. To perform the CAP sensitivity treatment, each well of the well plate 230 was filled with a 50 μL DMEM solution with the growing cells. Each of the cells in the 96-well plate 230 was treated by the CAP jet from the CAP jet device 202 vertically. The gap between the bottom of the 96-well plate 230 and the CAP source is 3 cm in this example. After the CAP treatment, 50 μL of new DMEM was transferred to replace the medium in the wells of the 96-well plate 230 treated by the CAP jet device 202.
As a result, cancer cells in the activation state were obtained when the CAP sensitivity treatment time was longer than 20 seconds. Reactive treatment was applied in the form of new H2O2 − DMEM added to the cells in the well plate 230. To make the new H2O2 − DMEM, 9.8 M H2O2 standard solution (Sigma-Aldrich, 216763) was added to DMEM with a designed concentration. Then, H2O2 − DMEM or NO2 − DMEM was transferred to affect the activated cancer cells in the designed experiments. The cell viability was measured by using MTT assay according to the standard protocols provided by the manufacturer (Sigma-Aldrich, M2128). The 96-well plate 230 was read by an H1 microplate reader manufactured by […] at an absorbance of 570 nm after shaking in the reader for 30 seconds. To perform the data analysis, the measured absorbance at 570 nm was processed to be a relative cell viability by the division of absorbance between the experimental group and the control group.
The CAP treatment and removal of the medium containing reactive species is the basic strategy to obtain the cancer cells in the activated state. Thus, the process for increasing the effectiveness of treating cancer cells with a follow up reactive treatment is as follows. The direct CAP sensitivity treatment (1 min) was first performed on each well of the 96-well plate 230. The cancer cells in the wells were immersed in 50 μL of DMEM. The DMEM was quickly removed (less than a minute) after the CAP sensitivity treatment. Then, the CAP-activated (treated) cancer cells were obtained. The cytotoxicity of H2O2 (10 μM) treatment on the CAP-treated (activated) cancer cells were compared with that on cancer cells without the CAP sensitivity treatment. The H2O2-containing DMEM was made by adding H2O2 standard solution (Sigma-Aldrich, 216763) in DMEM with a designed concentration (10 μM). All cells were cultured for 3 days before the final cell viability assay using a MTT assay (Sigma-Aldrich, M2128). The cell viability assay was performed following the standard protocols provided by the manufacturer. Finally, the absorbance at 570 nm was processed to be a relative cell viability (fold) by the division of absorbance between the experimental group and the control group. In the control group, cancer cells were just cultured in the untreated DMEM.
For orientation: Formazan colour is commonly taken as a measure of viable cells.

Data set [2] shares this test system. Described as above. The class given is cell-based.
The conditions of data set [3]: cited from earlier work.
Where [4] appears, read: low concentration, CAP-activated cancer cells.
Where [5] appears, read: low concentration, same cancer cells without activation.

In the case of `OO` [H2O2], the “killing effect (in words)” value in data set [1] (10 μM H2O2, CAP-activated cells) is “significant killing effect”; in data set [1] (10 μM H2O2, cells without CAP treatment (activation)), “will not cause a killing effect; also recorded: does not cause a killing effect”; in data set [1] (setting [4]), “noticeable killing effect”; in data set [1] (setting [5]) it was “will not cause significant killing effect”; in data set [2] (H2O2 15 μM and 22 μM, CAP-activated cells), “strong killing effect”; in data set [2] (H2O2-DMEM 15 μM and 22 μM, cells without activation), “did not cause strong killing effect”. Further, the cell viability was 0.73 fold in data set [1] (discharge voltage 3.15 kV), 0.38 fold in data set [1] (discharge voltage 3.78 kV) and 0.71 fold in data set [1] (discharge voltage 4.67 kV). The “effect on cell viability (in words)” value in data set [1] (H2O2 DMEM applied two hours after CAP treatment) is “does not have any effect on cell viability”. Moreover, the killing effect in data set [2] (22 μM H2O2, cells activated by CAP (bars 414 and 444)) was approximately 50%; in data set [2] (22 μM H2O2, cells without activation (bars 416 and 446)) it was “about 10%”. For the same compound, the “killing of cancer cells (in words)” value in data set [2] (22 μM H2O2-DMEM, cells activated by CAP treatment) was “strongly kill”. Further, in data set [2] (22 μM H2O2-DMEM, cells without CAP treatment), the “inhibition on the cell viability (in words)” value was “very small inhibition”.

As to `O=NO` [NO2 −], the “killing effect (in words)” value is on record as “noticeable killing effect” in data set [1] (setting [4]) and “will not cause significant killing effect” in data set [1] (setting [5]).

In the case of `Cn1nnc2c(C(N)=O)ncn2c1=O` [TMZ, Temozolomide], the “concentration range found in CSF” value in data set [3] was 10 to 25 µM.

(Values after patent US12383753B2, “Method and system of sensitizing cancer cells to chemical treatment by plasma based activation” (The George Washington University, priority 2018, dated 2025).)
